Test results from ChEMBL document CHEMBL1135488, “Prediction of volume of distribution values in humans for neutral and basic drugs using physicochemical measurements and plasma protein binding data” (J Med Chem, 2002).

Tests used:
[1] = in vitro; details: human, plasma
[2] = in vitro
[3] = pH 7.4
[4] = Ionisation constant (pKa); assay type: physicochemical
[5] = clinical; details: human, in vivo, iv

CNS(=O)(=O)Cc1ccc2[nH]cc(CCN(C)C)c2c1
fraction unbound [1]: […] | fraction unbound ([2]; tissues): 0.661 | Fraction ionised [3]: 0.992 | pKa [4]: 9.5 | Vd [5]: 0.65 L/kg

O=C1Nc2ccc(Cl)cc2C(c2ccccc2Cl)=NC1O (racemic) [LORAZEPAM]
fraction unbound ([2]; tissues): 0.029 | Fraction ionised [3]: 0 | Vd [5]: 1.3 L/kg

COc1ccc2[nH]c([S+]([O-])Cc3ncc(C)c(OC)c3C)nc2c1 (racemic) [OMEPRAZOLE]
fraction unbound ([2]; tissues): 0.082 | Fraction ionised [3]: 0 | pKa [4]: Not Active | Vd [5]: 0.34 L/kg

CCCC(=O)Nc1ccc(OCC(O)CNC(C)C)c(C(C)=O)c1 (configuration not stated) [ACEBUTOLOL]
fraction unbound ([2]; tissues): 0.273 | Fraction ionised [3]: 0.995 | Vd [5]: 1.2 L/kg

Oc1ncnc2[nH]ncc12 [ALLOPURINOL]
fraction unbound [1]: 0.95 | fraction unbound ([2]; tissues): 0.881 | Fraction ionised [3]: 0 | pKa [4]: Not Active | Vd [5]: 0.6 L/kg

Cc1nnc2n1-c1ccc(Cl)cc1C(c1ccccc1)=NC2 [ALPRAZOLAM]
fraction unbound ([2]; tissues): 0.881 | Fraction ionised [3]: 0 | Vd [5]: 0.72 L/kg

C=CCc1ccccc1OCC(O)CNC(C)C (configuration not stated) [ALPRENOLOL]
fraction unbound [1]: 0.24 | fraction unbound ([2]; tissues): 0.028 | Fraction ionised [3]: 0.992 | Vd [5]: 3.4 L/kg

CCCCc1oc2ccccc2c1C(=O)c1cc(I)c(OCCN(CC)CC)c(I)c1 [AMIODARONE]
Fraction ionised [3]: 0.955

Cc1cc(=O)n(-c2ccccc2)n1C [ANTIPYRINE]
fraction unbound ([2]; tissues): 0.825 | Fraction ionised [3]: 0 | pKa [4]: Not Active | Vd [5]: 0.6 L/kg

CN1[C@@H]2CC[C@H]1C[C@@H](OC(=O)C(CO)c1ccccc1)C2 (some centres not stated) [ATROPINE]
Fraction ionised [3]: 0.996

O=C1CN=C(c2ccccn2)c2cc(Br)ccc2N1 [BROMAZEPAM]
fraction unbound [1]: 0.3 | fraction unbound ([2]; tissues): 0.146 | Fraction ionised [3]: 0 | pKa [4]: Not Active | Vd [5]: 0.91 L/kg

Cn1c(=O)c2c(ncn2C)n(C)c1=O [CAFFEINE]
fraction unbound ([2]; tissues): 0.543 | Fraction ionised [3]: 0 | Vd [5]: 0.61 L/kg

O=C(N[C@H](CO)[C@H](O)c1ccc([N+](=O)[O-])cc1)C(Cl)Cl [CHLORAMPHENICOL]
fraction unbound [1]: 0.47 | fraction unbound ([2]; tissues): 0.225 | Fraction ionised [3]: 0 | Vd [5]: 0.94 L/kg

CN(C)CCC(c1ccc(Cl)cc1)c1ccccn1 (configuration not stated) [CHLORPHENIRAMINE]
fraction unbound [1]: 0.3 | fraction unbound [2]: 0.037 | Fraction ionised [3]: 0.986 | Vd [5]: 3.2 L/kg

CN(C)CCCN1c2ccccc2Sc2ccc(Cl)cc21 [CHLORPROMAZINE]
fraction unbound [1]: 0.03 | fraction unbound [2]: 0.001 | Fraction ionised [3]: 0.986 | Vd [5]: 21 L/kg

CN/C(=N/CCSCc1nc[nH]c1C)NC#N [CIMETIDINE]
fraction unbound [1]: 0.81 | fraction unbound [2]: 0.374 | Fraction ionised [3]: 0.271 | pKa [4]: 6.97 | Vd [5]: 1 L/kg

Clc1cccc(Cl)c1N=C1NCCN1 [CLONIDINE]
fraction unbound [1]: 0.8 | fraction unbound [2]: 0.158 | Fraction ionised [3]: 0.817 | Vd [5]: 2.1 L/kg

CN1CCN(C2=Nc3cc(Cl)ccc3Nc3ccccc32)CC1 [CLOZAPINE]
fraction unbound [2]: 0.004 | Fraction ionised [3]: 0.629 | Vd [5]: 5.4 L/kg

COC(=O)[C@H]1[C@@H](OC(=O)c2ccccc2)C[C@@H]2CC[C@H]1N2C [COCAINE]
fraction unbound [1]: 0.09 | fraction unbound ([2]; tissues): 0.018 | Fraction ionised [3]: 0.952 | Vd [5]: 2 L/kg

CNCCCN1c2ccccc2CCc2ccccc21 [DESIPRAMINE]
fraction unbound [2]: 0.003 | Fraction ionised [3]: 0.999 | Vd [5]: 20 L/kg

C[C@@H]1C[C@H]2[C@@H]3CCC4=CC(=O)C=C[C@]4(C)[C@@]3(F)[C@@H](O)C[C@]2(C)[C@@]1(O)C(=O)CO [DEXAMETHASONE]
fraction unbound [2]: 0.182 | Fraction ionised [3]: 0

CN1C(=O)CN=C(c2ccccc2)c2cc(Cl)ccc21 [DIAZEPAM]
Fraction ionised [3]: 0

COc1ccc([C@@H]2Sc3ccccc3N(CCN(C)C)C(=O)[C@@H]2OC(C)=O)cc1 [DILTIAZEM]
fraction unbound ([2]; tissues): 0.028 | Fraction ionised [3]: 0.82 | Vd [5]: 3.1 L/kg

CN(C)CCOC(c1ccccc1)c1ccccc1 [DIPHENHYDRAMINE]
Fraction ionised [3]: 0.98

C[C@]12CC[C@@H]3c4ccc(O)cc4CC[C@H]3[C@@H]1CC[C@@H]2O [ESTRADIOL]
fraction unbound [1]: 0.015 | fraction unbound ([2]; tissues): 0.005 | Fraction ionised [3]: 0 | Vd [5]: 1.2 L/kg

O=C(NCC1CCCCN1)c1cc(OCC(F)(F)F)ccc1OCC(F)(F)F (configuration not stated) [FLECAINIDE]
fraction unbound [1]: 0.39 | fraction unbound ([2]; tissues): 0.031 | Fraction ionised [3]: 0.988 | Vd [5]: 4.9 L/kg

OC(Cn1cncn1)(Cn1cncn1)c1ccc(F)cc1F [FLUCONAZOLE]
fraction unbound ([2]; tissues): 0.814 | Fraction ionised [3]: 0 | pKa [4]: Not Active | Vd [5]: 0.6 L/kg

O=C(CCCN1CCC(O)(c2ccc(Cl)cc2)CC1)c1ccc(F)cc1 [HALOPERIDOL]
fraction unbound [2]: 0.002 | Fraction ionised [3]: 0.947 | Vd [5]: 18 L/kg

CN(C)CCCN1c2ccccc2CCc2ccccc21 [IMIPRAMINE]
fraction unbound ([2]; tissues): 0.002 | Fraction ionised [3]: 0.992 | Vd [5]: 18 L/kg

CCN(CC)CC(=O)Nc1c(C)cccc1C [LIDOCAINE]
Fraction ionised [3]: 0.776

CN1C(=O)C(O)N=C(c2ccccc2Cl)c2cc(Cl)ccc21 (configuration not stated) [LORMETAZEPAM]
fraction unbound ([2]; tissues): 0.007 | Fraction ionised [3]: 0 | Vd [5]: 6.8 L/kg

CCN(CC)CCNC(=O)c1cc(Cl)c(N)cc1OC [METOCLOPRAMIDE]
fraction unbound [2]: 0.07 | Fraction ionised [3]: 0.988 | Vd [5]: 3.4 L/kg

COCCc1ccc(OCC(O)CNC(C)C)cc1 (configuration not stated) [METOPROLOL]
fraction unbound [1]: […] | fraction unbound [2]: 0.084 | Fraction ionised [3]: 0.995 | Vd [5]: 4.2 L/kg

Cc1cccc(C)c1OCC(C)N (configuration not stated) [MEXILETINE]
fraction unbound [1]: 0.37 | fraction unbound [2]: 0.03 | Fraction ionised [3]: 0.981 | Vd [5]: 4.9 L/kg

CN1CC[C@]23c4c5ccc(O)c4O[C@H]2[C@@H](O)C=C[C@H]3[C@H]1C5 [MORPHINE]
Fraction ionised [3]: 0.858

COC(=O)C1=C(C)NC(C)=C(C(=O)OC)C1c1ccccc1[N+](=O)[O-] [NIFEDIPINE]
fraction unbound [2]: 0.023 | Vd [5]: 0.78 L/kg

CC(=O)CCCCn1c(=O)c2c(ncn2C)n(C)c1=O [PENTOXIFYLLINE]
fraction unbound [1]: 1 | fraction unbound ([2]; tissues): 0.095 | Fraction ionised [3]: 0 | Vd [5]: 4.2 L/kg

C[C@]12C=CC(=O)C=C1CC[C@@H]1[C@@H]2[C@@H](O)C[C@@]2(C)[C@H]1CC[C@]2(O)C(=O)CO [PREDNISOLONE]
fraction unbound [1]: 0.075 | fraction unbound [2]: 0.021 | Fraction ionised [3]: 0 | Vd [5]: 1.5 L/kg

C[C@]12C=CC(=O)C=C1CC[C@@H]1[C@@H]2C(=O)C[C@@]2(C)[C@H]1CC[C@]2(O)C(=O)CO [PREDNISONE]
fraction unbound [1]: 0.25 | fraction unbound ([2]; tissues): 0.113 | Fraction ionised [3]: 0 | Vd [5]: 0.97 L/kg

CCN(CC)CCNC(=O)c1ccc(N)cc1 [PROCAINAMIDE]
Fraction ionised [3]: 0.986

CCCNCC(O)COc1ccccc1C(=O)CCc1ccccc1 (configuration not stated) [PROPAFENONE]
Fraction ionised [3]: 0.987

CC(C)NCC(O)COc1cccc2ccccc12 (configuration not stated) [PROPRANOLOL]
fraction unbound [2]: 0.012 | Fraction ionised [3]: 0.991 | Vd [5]: 4.3 L/kg

C=C[C@H]1C[N@@]2CC[C@H]1C[C@@H]2[C@@H](O)c1ccnc2ccc(OC)cc12 [QUINIDINE]
fraction unbound ([2]; tissues): 0.019 | Fraction ionised [3]: 0.817

CNC(=C[N+](=O)[O-])NCCSCc1ccc(CN(C)C)o1 [RANITIDINE]
fraction unbound ([2]; tissues): 0.289 | Fraction ionised [3]: 0.922 | pKa [4]: 8.47 | Vd [5]: 1.3 L/kg

Cc1nc2n(c(=O)c1CCN1CCC(c3noc4cc(F)ccc34)CC1)CCCC2 [RISPERIDONE]
fraction unbound [2]: 0.042 | Fraction ionised [3]: 0.764

CC(C)(C)NCC(O)c1cc(O)cc(O)c1 (configuration not stated) [TERBUTALINE]
fraction unbound ([2]; tissues): 0.187 | Fraction ionised [3]: 0.952 | Vd [5]: 1.8 L/kg

COc1cc(Cc2cnc(N)nc2N)cc(OC)c1OC [TRIMETHOPRIM]
fraction unbound [1]: 0.63 | fraction unbound [2]: 0.166 | Fraction ionised [3]: 0.319 | Vd [5]: 1.6 L/kg
